In ChEMBL document CHEMBL3102795, “Discovery of 1-oxa-4,9-diazaspiro[5.5]undecane-based trisubstituted urea derivatives as highly potent soluble epoxide hydrolase inhibitors and orally active drug candidates for treating of chronic kidney diseases” (Bioorg Med Chem Lett, 2014):
pIC50: −log10 of the molar value. Converted amounts (≈) assume the structure as drawn.

Tests used:
Liver microsome = assay: Metabolic stability in human liver microsomes measured per mg of protein; assay type: ADME
[1] = Solubility of the compound in simulated gastric fluid compliant with Japanese pharmacopeia; assay type: ADME
[2] = Solubility of the compound in simulated intestinal fluid compliant with Japanese pharmacopeia; assay type: ADME
[3] = target: T1, Bifunctional epoxide hydrolase 2 (Rattus norvegicus, UniProt P80299); assay: Inhibition of rat recombinant sEH expressed in baculovirus infected insect Sf9 cells using cyano(6-methoxynaphthalen-2-yl)methyl trans-[(3-phenyloxiran-2-yl)methyl] carbonate as substrate preincubated for 30 mins followed by substrate addition measured after 20 to 45 mins by fluorescence assay
T1 sequence (P80299 whole entry): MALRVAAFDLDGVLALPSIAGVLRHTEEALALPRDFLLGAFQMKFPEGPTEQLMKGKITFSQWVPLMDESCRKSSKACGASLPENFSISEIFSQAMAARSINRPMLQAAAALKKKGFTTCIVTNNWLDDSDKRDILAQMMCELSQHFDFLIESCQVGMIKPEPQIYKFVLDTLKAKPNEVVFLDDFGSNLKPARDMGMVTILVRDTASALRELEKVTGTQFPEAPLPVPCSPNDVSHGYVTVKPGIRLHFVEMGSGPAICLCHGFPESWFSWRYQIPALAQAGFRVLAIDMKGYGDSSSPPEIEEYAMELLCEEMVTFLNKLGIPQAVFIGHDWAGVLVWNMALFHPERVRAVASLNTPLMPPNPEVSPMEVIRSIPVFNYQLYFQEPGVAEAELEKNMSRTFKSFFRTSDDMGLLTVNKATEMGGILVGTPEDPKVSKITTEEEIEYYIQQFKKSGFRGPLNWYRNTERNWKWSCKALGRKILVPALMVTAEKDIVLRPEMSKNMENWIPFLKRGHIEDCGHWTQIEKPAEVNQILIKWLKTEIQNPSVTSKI

[4] = target: T2, Bifunctional epoxide hydrolase 2 (Homo sapiens, UniProt P34913); assay: Inhibition of human recombinant sEH expressed in baculovirus infected insect Sf9 cells using cyano(6-methoxynaphthalen-2-yl)methyl trans-[(3-phenyloxiran-2-yl)methyl] carbonate as substrate preincubated for 30 mins followed by substrate addition measured after 20 to 45 mins by fluorescence assay
T2 sequence (P34913 whole entry): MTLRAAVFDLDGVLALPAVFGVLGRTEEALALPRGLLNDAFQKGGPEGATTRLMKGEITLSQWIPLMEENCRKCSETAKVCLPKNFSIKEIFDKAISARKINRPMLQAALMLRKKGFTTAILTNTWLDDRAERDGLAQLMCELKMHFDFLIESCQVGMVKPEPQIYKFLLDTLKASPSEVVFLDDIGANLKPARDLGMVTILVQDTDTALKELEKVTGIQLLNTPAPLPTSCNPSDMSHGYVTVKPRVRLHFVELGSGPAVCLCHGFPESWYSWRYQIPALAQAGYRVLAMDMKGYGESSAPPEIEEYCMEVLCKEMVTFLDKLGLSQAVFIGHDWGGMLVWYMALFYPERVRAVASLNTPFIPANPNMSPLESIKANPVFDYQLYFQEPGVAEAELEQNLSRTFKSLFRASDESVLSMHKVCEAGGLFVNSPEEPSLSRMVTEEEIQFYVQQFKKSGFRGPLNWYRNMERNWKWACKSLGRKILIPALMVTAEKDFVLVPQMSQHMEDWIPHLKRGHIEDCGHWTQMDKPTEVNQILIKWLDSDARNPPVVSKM

[5] = Oral bioavailability in rat at 1 mg/kg; assay type: ADME, organism-based; conditions: in vivo
[6] = Tmax in rat at 1 mg/kg, po; assay type: ADME, organism-based; set-up: dose 1 mg/kg, route oral; conditions: in vivo
[7] = AUC (0 to infinity) in rat at 1 mg/kg, po; assay type: ADME, organism-based; set-up: time infinity, dose 1 mg/kg, route oral; conditions: plasma
[8] = Cmax in rat at 1 mg/kg, po; assay type: ADME, organism-based; set-up: dose 1 mg/kg, route oral; conditions: in vivo
[9] = Total clearance in rat at 0.2 mg/kg, iv; assay type: ADME, organism-based; set-up: dose 0.2 mg/kg, route intravenous; conditions: in vivo
[10] = Volume of distribution at steady state in rat at 0.2 mg/kg, iv; assay type: ADME, organism-based; set-up: dose 0.2 mg/kg, route intravenous; conditions: in vivo, read-out: Vdss
[11] = Half life in rat at 0.2 mg/kg, iv; assay type: ADME, organism-based; set-up: dose 0.2 mg/kg, route intravenous; conditions: in vivo
[12] = AUC (0 to infinity) in rat at 0.2 mg/kg, iv; assay type: ADME, organism-based; set-up: time infinity, dose 0.2 mg/kg, route intravenous; conditions: plasma
[13] = Drug uptake in rat at 0.2 mg/kg, iv at 5 mins; assay type: ADME, organism-based; set-up: dose 0.2 mg/kg, route intravenous; conditions: in vivo, read-out: Drug uptake

Row | SMILES | CLint (Liver microsome) [µL/min/mg] | solubility [1] [µg/mL] | solubility [2] [µg/mL] | pIC50 [3] | pIC50 [4] | bioavailability [5] [%] | Tmax [6] [h] | AUC(0-inf) [7] [ng·h/mL] | Cmax [8] [ng/mL] | clearance [9] [mL/min/kg] | Vd [10] [L/kg] | half-life [11] [h] | AUC(0-inf) [12] [ng·h/mL] | concentration at 5 min [13] [ng/mL]
1 | O=C(Nc1ccc(C(F)(F)F)cc1)N1CCOC2(CCN(C(=O)c3ccccc3Cl)CC2)C1 | 48 | 10 (≈ 20.8 µM) | 12 (≈ 24.9 µM) | 7.89 | 8.85 | – | – | – | – | – | – | – | – | –
2 | O=C(Nc1ccc(C(F)(F)F)cc1)N1CCOC2(CCN(C(=O)c3ccc(Cl)cc3)CC2)C1 | 21 | 29 (≈ 60.2 µM) | 23 (≈ 47.7 µM) | 7.60 | 9.00 | – | – | – | – | – | – | – | – | –
3 | O=C(Nc1ccc(C(F)(F)F)cc1)N1CCOC2(CCN(C(=O)c3ccccc3)CC2)C1 | – | 62 (≈ 139 µM) | 63 (≈ 141 µM) | – | 8.49 | – | – | – | – | – | – | – | – | –
4 | O=C(Nc1ccc(OC(F)(F)F)cc1)N1CCOC2(CCN(C(=O)C3CCCCC3)CC2)C1 | 357 | 69 (≈ 147 µM) | 63 (≈ 134 µM) | 7.84 | 9.22 | – | – | – | – | – | – | – | – | –
5 | Cc1cnc(C(=O)N2CCC3(CC2)CN(C(=O)Nc2ccc(OC(F)(F)F)cc2)CCO3)cn1 | 12 | 91 (≈ 190 µM) | 92 (≈ 192 µM) | 8.06 | 9.05 | 11.1 | 1 | 61.3 | 8.64 | 30.1 | 1.82 | 1.53 | 111 | 134
6 | O=C(Nc1ccc(OC(F)(F)F)cc1)N1CCC2(CC1)CN(C(=O)c1c(F)cccc1F)CCO2 | – | 52 (≈ 104 µM) | 46 (≈ 92.1 µM) | – | 8.27 | – | – | – | – | – | – | – | – | –
7 | CC(C)(C)C(=O)N1CCC2(CC1)CN(C(=O)Nc1ccc(C(F)(F)F)cc1)CCO2 | 98 | 76 (≈ 178 µM) | 73 (≈ 171 µM) | 7.92 | 8.54 | – | – | – | – | – | – | – | – | –
8 | O=C(Nc1ccc(C(F)(F)F)cc1)N1CCOC2(CCN(C(=O)c3ccco3)CC2)C1 | – | 75 (≈ 171 µM) | 75 (≈ 171 µM) | – | 8.27 | – | – | – | – | – | – | – | – | –
9 | N#Cc1ccc(C(=O)N2CCC3(CC2)CN(C(=O)Nc2ccc(C(F)(F)F)cc2)CCO3)cc1 | 3 | 85 (≈ 180 µM) | 82 (≈ 174 µM) | 7.82 | 8.72 | – | – | – | – | – | – | – | – | –
10 | O=C(Nc1ccc(C(F)(F)F)cc1)N1CCOC2(CCN(C(=O)c3c(F)cccc3F)CC2)C1 | 93 | 43 (≈ 88.9 µM) | 38 (≈ 78.6 µM) | 7.72 | 8.89 | – | – | – | – | – | – | – | – | –
11 | O=C(Nc1ccc(C(F)(F)F)cc1)N1CCOC2(CCN(C(=O)c3cccc(Cl)c3)CC2)C1 | 100 | 26 (≈ 54 µM) | 21 (≈ 43.6 µM) | 7.43 | 8.92 | – | – | – | – | – | – | – | – | –
12 | O=C(Nc1ccc(OC(F)(F)F)cc1)N1CCOC2(CCN(C(=O)c3cnoc3C3CC3)CC2)C1 | 87 | 86 (≈ 174 µM) | 89 (≈ 180 µM) | 7.65 | 9.22 | – | – | – | – | – | – | – | – | –
13 | O=C(CC1CC1)N1CCC2(CC1)CN(C(=O)Nc1ccc(C(F)(F)F)cc1)CCO2 | 74 | 79 (≈ 186 µM) | 79 (≈ 186 µM) | 7.50 | 8.68 | – | – | – | – | – | – | – | – | –
14 | COc1ccccc1CC(=O)N1CCC2(CC1)CN(C(=O)Nc1ccc(OC(F)(F)F)cc1)CCO2 | 461 | 66 (≈ 130 µM) | 59 (≈ 116 µM) | 7.15 | 9.30 | – | – | – | – | – | – | – | – | –
15 | O=C(Nc1ccc(OC(F)(F)F)cc1)N1CCC2(CCCN(C(=O)c3c(F)cccc3F)C2)CC1 | – | – | – | – | 8.53 | – | – | – | – | – | – | – | – | –
16 | O=C(Nc1ccc(OC(F)(F)F)cc1)N1CCOC2(CCN(C(=O)C3(c4ccccc4)CC3)CC2)C1 | 228 | 37 (≈ 73.5 µM) | 33 (≈ 65.5 µM) | 7.55 | 9.40 | – | – | – | – | – | – | – | – | –
17 | O=C(Nc1ccc(C(F)(F)F)cc1)N1CCOC2(CCN(C(=O)c3ccccn3)CC2)C1 | – | 85 (≈ 190 µM) | 83 (≈ 185 µM) | – | 8.38 | – | – | – | – | – | – | – | – | –
18 | Cc1cc(C(=O)N2CCC3(CC2)CN(C(=O)Nc2ccc(OC(F)(F)F)cc2)CCO3)no1 | 47 | 84 (≈ 179 µM) | 83 (≈ 177 µM) | 7.59 | 8.85 | 24.1 | 2 | 123 | 9.58 | 36.9 | 3.31 | 1.17 | 90.2 | 77.7
19 | O=C(Cc1ccccn1)N1CCC2(CC1)CN(C(=O)Nc1ccc(OC(F)(F)F)cc1)CCO2 | 132 | 92 (≈ 192 µM) | 90 (≈ 188 µM) | < 7.70 | 9.15 | – | – | – | – | – | – | – | – | –
20 | O=C(Nc1ccc(OC(F)(F)F)cc1)N1CCOC2(CCN(C(=O)c3c(F)cccc3F)CC2)C1 | 86 | 44 (≈ 88.1 µM) | 39 (≈ 78.1 µM) | 7.73 | 9.15 | – | – | – | – | – | – | – | – | –
21 | O=C1Cc2cc(C(=O)N3CCC4(CC3)CN(C(=O)Nc3ccc(OC(F)(F)F)cc3)CCO4)ccc2N1 | 29 | 96 (≈ 185 µM) | 93 (≈ 179 µM) | < 7.70 | 8.74 | – | – | – | – | – | – | – | – | –
22 | O=C(Nc1ccc(OC(F)(F)F)cc1)N1CCOC2(CCN(C(=O)c3cc(Cl)ccn3)CC2)C1 | 62 | 90 (≈ 180 µM) | 89 (≈ 178 µM) | 7.94 | 9.22 | – | – | – | – | – | – | – | – | –
23 | O=C(Nc1ccc(OC(F)(F)F)cc1)N1CCCC2(CCN(C(=O)c3c(F)cccc3F)CC2)C1 | 602 | 9 (≈ 18.1 µM) | 9 (≈ 18.1 µM) | 8.48 | 9.90 | – | – | – | – | – | – | – | – | –
24 | O=C(Nc1ccc(OC(F)(F)F)cc1)N1CCOC2(CCN(C(=O)c3c[nH]nc3C3CC3)CC2)C1 | 35 | 93 (≈ 188 µM) | 92 (≈ 186 µM) | 7.01 | 8.96 | – | – | – | – | – | – | – | – | –
25 | CC(=O)Nc1ccccc1C(=O)N1CCC2(CC1)CN(C(=O)Nc1ccc(C(F)(F)F)cc1)CCO2 | 39 | 92 (≈ 182 µM) | 93 (≈ 184 µM) | 8.17 | 9.10 | – | – | – | – | – | – | – | – | –
